Experimental data: patent US20050009840A1 (SUGEN, INC., priority 2003, published 2005)
“And” between values parts separate entries of the source, which are not always exact repeats. Equal entries are not always repeated.

molecular target: T1, Met kinase domain (GST fusion protein) (Homo sapiens, UniProt P08581); test: Met transphosphorylation assay (ELISA, poly(glu-tyr) substrate); assay type: biochemical; conditions: at 20 μM; read-out: Met inhibition (printed in the Met IC50 column);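 note: Cell-free ELISA with plate-bound poly(Glu:Tyr 4:1) phosphorylated by GST-fused Met kinase domain plus ATP and Mn2+, phosphotyrosine detected by anti-phosphotyrosine antibody with HRP and ABTS read-out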
T1 construct: Purified GST fusion protein containing the Met kinase domain
T1 sequence (P08581 1078-1345 limits assumed): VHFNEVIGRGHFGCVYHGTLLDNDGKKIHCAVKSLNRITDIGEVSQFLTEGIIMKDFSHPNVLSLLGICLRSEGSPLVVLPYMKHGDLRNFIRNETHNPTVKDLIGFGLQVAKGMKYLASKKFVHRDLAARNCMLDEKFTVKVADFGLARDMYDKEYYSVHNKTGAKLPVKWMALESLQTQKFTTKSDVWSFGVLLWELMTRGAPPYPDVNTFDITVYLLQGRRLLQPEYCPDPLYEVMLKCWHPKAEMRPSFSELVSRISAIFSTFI

SMILES	inhibition at 20 µM [%]
Nc1ncc(Br)cc1OCc1c(F)cccc1F [I(c)]	40

same assay, conditions: plain numbers in column Met IC50 (μM) of Table 2; read-out: Met IC50

SMILES	IC50 [µM]
CC(Oc1cc(-c2ccncc2)cnc1N)c1c(F)ccc(F)c1Cl (stereo not shown) [Example I-528, 5-[1-(2-Chloro-3,6-difluoro-phenyl)-ethoxy]-[3,4′]bipyridinyl-6-ylamine]	0.0659
CC(Oc1cc(OCc2ccccc2)cnc1N)c1c(F)ccc(F)c1Cl (stereo not shown) [Example I-529, 5-Benzyloxy-3-[1-(2-chloro-3,6-difluoro-phenyl)-ethoxy]-pyridin-2-ylamine]	2.58
CCC(CC)COc1cnc(N)c(OC(C)c2c(F)ccc(F)c2Cl)c1 (stereo not shown) [Example I-530, 3-[1-(2-Chloro-3,6-difluoro-phenyl)-ethoxy]-5-(2-ethyl-butoxy)-pyridin-2-ylamine]	4.08
CC(C)CCOc1cnc(N)c(OC(C)c2c(F)ccc(F)c2Cl)c1 (stereo not shown) [Example I-531, 3-[1-(2-Chloro-3,6-difluoro-phenyl)-ethoxy]-5-(3-methyl-butoxy)-pyridin-2-ylamine]	2.4
CCCCOc1cnc(N)c(OC(C)c2c(F)ccc(F)c2Cl)c1 (stereo not shown) [Example I-532, 3-[1-(2-Chloro-3,6-difluoro-phenyl)-ethoxy]-5-butoxy-pyridin-2-ylamine]	1.94
CCCOc1cnc(N)c(OC(C)c2c(F)ccc(F)c2Cl)c1 (stereo not shown) [Example I-533, 3-[1-(2-Chloro-3,6-difluoro-phenyl)-ethoxy]-5-propoxy-pyridin-2-ylamine]	0.672
CC(Oc1cc(OCC2CCCCC2)cnc1N)c1c(F)ccc(F)c1Cl (stereo not shown) [Example I-534, 3-[1-(2-Chloro-3,6-difluoro-phenyl)-ethoxy]-5-cyclohexylmethoxy-pyridin-2-ylamine]	5.97
CC(Oc1cc(O)cnc1N)c1c(F)ccc(F)c1Cl (stereo not shown) [Example I-535, 6-Amino-5-[1-(2-chloro-3,6-difluoro-phenyl)-ethoxy]-pyridin-3-ol]	0.54
CC(Oc1cc(OCCC2CCCCC2)cnc1N)c1c(F)ccc(F)c1Cl (stereo not shown) [Example I-536, 3-[1-(2-Chloro-3,6-diftuoro-phenyl)-ethoxy]-5-(2-cyclohexyl-ethoxy)-pyridin-2-ylamine]	7.5
CC(C)COc1cnc(N)c(OC(C)c2c(F)ccc(F)c2Cl)c1 (stereo not shown) [Example I-537, 3-[1-(2-Chloro-3,6-difluoro-phenyl)-ethoxy]-5-isobutoxy-pyridin-2-ylamine]	1.2
CC(Oc1cc(OCCc2ccccc2)cnc1N)c1c(F)ccc(F)c1Cl (stereo not shown) [Example I-538, 3-[1-(2-Chloro-3,6-difluoro-phenyl)-ethoxy]-5-phenethyloxy-pyridin-2-ylamine]	2.8
CC(Oc1cc(OCc2ccccn2)cnc1N)c1c(F)ccc(F)c1Cl (stereo not shown) [Example I-539, 3-[1-(2-Chloro-3,6-difluoro-phenyl)-ethoxy]-5-(pyridin-2-ylmethoxy)-pyridin-2-ylamine]	3.2
CC(Oc1cc(OCc2ccncc2)cnc1N)c1c(F)ccc(F)c1Cl (stereo not shown) [Example I-540, 3-[1-(2-Chloro-3,8-difluoro-phenyl)-ethoxy]-5-(pyridin-4-ylmethoxy)-pyridin-2-ylamine]	0.8
CC(Oc1cc(-c2ccc(C(=O)N3CCN(C)CC3)cc2)cnc1N)c1c(Cl)ccc(F)c1Cl (stereo not shown) [Example I-541, (4-{6-Amino-5-[1-(2,6-dichloro-3-fluoro-phenyl)-ethoxy]-pyridin-3-yl}-phenyl)-(4-methyl-piperazin-1-yl)-methanone]	0.079

same assay, conditions: read-out: Met IC50

SMILES	IC50
Nc1ncc(Br)cc1OCc1c(Cl)cccc1Cl [I(a), 5-Bromo-3-(2,6-dichloro-benzyloxy)-pyridin-2-ylamine]	5.3 µM
Nc1ncc(Br)cc1OCc1ccccc1 [I(b), 3-Benzyloxy-5-bromo-pyridin-2-ylamine]	> 20 µM
Nc1ncc(Br)cc1OCc1ccccc1Br [I(d), 5-Bromo-3-(2-bromo-benzyloxy)-pyridin-2-ylamine]	> 20 µM
Nc1ncc(Br)cc1OCc1c(F)cccc1Cl [I(e), 5-Bromo-3-(2-chloro-6-fluoro-benzyloxy)-pyridin-2-ylamine]	20 µM
Nc1ncc(Br)cc1OCc1c(F)ccc(F)c1Cl [I(l), 5-Bromo-3-(2-chloro-3.6-difluoro-benzyloxy)-pyridin-2-ylamine]	5.3 µM
Nc1ncc(Br)nc1OCc1c(Cl)cccc1Cl [II(a), 5-Bromo-3-(2,6-dichloro-benzyloxy)-pyrazin-2-ylamine]	> 20 µM
Nc1ncc(Br)nc1OCc1c(F)ccc(F)c1Cl [II(b), 5-Bromo-3-(2-chloro-3,6-difluoro-benzyloxy)-pyrazin-2-ylamine]	> 20 µM
CC(Oc1nc(Br)cnc1N)c1c(F)ccc(F)c1Cl (stereo not shown) [II(c), 5-Bromo-3-[1-(2-chloro-3,6-difluoro-phenyl)-ethoxy]-pyrazin-2-ylamine]	1.81 µM and 2.67 µM
CC(C)C(Oc1nc(Br)cnc1N)c1c(F)ccc(F)c1Cl (stereo not shown) [II(d), 5-Bromo-3-[1-(2-chloro-3,6-difluoro-phenyl)-2-methyl-propoxy]-pyrazin-2-ylamine]	18.1 µM
CC(Oc1nc(Br)cnc1N)c1c(Cl)ccc(F)c1Cl (stereo not shown) [II(e), 5-Bromo-3-[1-(2,6-dichloro-3-fluoro-phenyl)-ethoxy]-pyrazin-2-ylamine]	0.24 µM and 0.66 µM and 1.3 µM
Nc1ncc(-c2ccc(O)cc2)nc1OCc1c(Cl)cccc1Cl [II-1, 4-[5-Amino-6-(2,6-dichloro-benzyloxy)-pyrazin-2-yl]-phenol]	1.35 µM
Nc1ncc(-c2ccc(N3CCCS3(=O)=O)cc2)nc1OCc1c(Cl)cccc1Cl [II-2, 3-(2,6-Dichloro-benzyloxy)-5-[4-(1,1-dioxo-1λ^6-isothiazolidin-2-yl)-phenyl]-pyrazin-2-ylamine]	0.825 µM
Nc1ncc(-c2cccc(OCCN3CCOCC3)c2)nc1OCc1c(Cl)cccc1Cl [II-3, 3-(2,6-Dichloro-benzyloxy)-5-[3-(2-morpholin-4-yl-ethoxy)-phenyl]-pyrazin-2-ylamine]	0.74 µM
Nc1ncc(-c2ccc(OCCN3CCOCC3)cc2)nc1OCc1c(Cl)cccc1Cl [II-4, 3-(2,6-Dichloro-benzyloxy)-5-[4-(2-morpholin-4-yl-ethoxy)-phenyl]-pyrazin-2-ylamine]	1.25 µM
Nc1ccc(-c2cnc(N)c(OCc3c(Cl)cccc3Cl)n2)cc1 [II-5, 5-(4-Amino-phenyl)-3-(2,6-dichloro-benzyloxy)-pyrazin-2-ylamine]	0.94 µM
Nc1ncc(-c2ccc(C(=O)O)cc2)nc1OCc1c(Cl)cccc1Cl [II-6, 4-[5-amino-6-(2,6-dichloro-benzyloxy)-pyrazin-2-yl]-benzoic acid]	1.75 µM
Nc1ncc(-c2ccc(C(=O)N3CCC[C@@H]3CN3CCCC3)cc2)nc1OCc1c(Cl)cccc1Cl [II-7, {4-[5-Amino-6-(2,6-dichloro-benzyloxy)-pyrazin-2-yl]-phenyl)[(2R)-2-pyrrolidin-1-ylmethyl-pyrrolidin-1-yl]-methanone]	0.24 µM
Nc1ncc(-c2ccc(C(=O)N3CCC(N4CCCC4)CC3)cc2)nc1OCc1c(Cl)cccc1Cl [II-8]	0.56 µM
Nc1ncc(-c2ccc(NS(=O)(=O)CCN3CCOCC3)cc2)nc1OCc1c(F)ccc(F)c1Cl [II-9, 2-Morpholin-4-yl-ethanesulfonic acid {4-[5-amino-6-(2-chloro-3,6-difluoro-benzyloxy)-pyrazin-2-yl]-phenyl}-amide]	1.26 µM
Nc1ncc(-c2ccc(NS(=O)(=O)CCN3CCCCC3)cc2)nc1OCc1c(F)ccc(F)c1Cl [II-10, 2-Piperidin-1-yl-ethanesulfonic acid {4-[5-amino-6-(2-chloro-3,6-difluoro-benzyloxy)-pyrazin-2-yl]-phenyl}-amide]	1.2 µM
Nc1ncc(-c2ccc(NS(=O)(=O)CCN3CCC(O)CC3)cc2)nc1OCc1c(F)ccc(F)c1Cl [II-11, 2-(4-Hydroxy-piperidin-1-yl)-ethanesulfonic acid {4-[5-amino-6-(2-chloro-3,6-difluoro-benzyloxy)-pyrazin-2-yl]-phenyl}-amide]	0.65 µM
Nc1ncc(-c2ccc(NS(=O)(=O)CCN3CCCC3)cc2)nc1OCc1c(F)ccc(F)c1Cl [II-12, 2-Pyrrolidin-1-yl-ethanesulfonic acid {4-[5-amino-6-(2-chloro-3,6-difluoro-benzyloxy)-pyrazin-2-yl]-phenyl}-amide]	0.58 µM
Nc1ncc(-c2ccc(NS(=O)(=O)CCN3CC[C@@H](O)C3)cc2)nc1OCc1c(F)ccc(F)c1Cl [II-13, 2-[(3R)-3-Hydroxy-pyrrolidin-1-yl]-ethanesulfonic acid {4-[5-amino-6-(2-chloro-3,6-difluoro-benzyloxy)-pyrazin-2-yl]-phenyl}-amide]	1.59 µM
Nc1ncc(-c2ccc(NS(=O)(=O)CCN3CCC[C@H]3CO)cc2)nc1OCc1c(F)ccc(F)c1Cl [II-14, 2-[(2S)-2-Hydroxymethyl-pyrrolidin-1-yl]-ethanesulfonic acid {4-[5-amino-6-(2-chloro-3,6-difluoro-benzyloxy)-pyrazin-2-yl]-phenyl}-amide]	1.78 µM
Nc1ncc(-c2ccc(NS(=O)(=O)CCNCC3CC3)cc2)nc1OCc1c(F)ccc(F)c1Cl [II-15, 2-(Cyclopropylmethyl-amino)-ethanesulfonic acid {4-[5-amino-6-(2-chloro-3,6-difluoro-benzyloxy)-pyrazin-2-yl]-phenyl}-amide]	1.28 µM
CN(C)CCS(=O)(=O)Nc1ccc(-c2cnc(N)c(OCc3c(F)ccc(F)c3Cl)n2)cc1 [II-16, 2-Dimethylamino-ethanesulfonic acid {4-[5-amino-6-(2-chloro-3,6-difluoro-benzyloxy)-pyrazin-2-yl]-phenyl}-amide]	0.91 µM
CC(=O)N1CCN(CCS(=O)(=O)Nc2ccc(-c3cnc(N)c(OCc4c(F)ccc(F)c4Cl)n3)cc2)CC1 [II-18, 2-(4-Acetyl-piperazin-1-yl)-ethanesulfonic acid {4-[5-amino-6-(2-chloro-3,6-difluoro-benzyloxy)-pyrazin-2-yl]-phenyl}-amide]	1.5 µM
Nc1ncc(-c2ccc(NS(=O)(=O)CCNC3CC3)cc2)nc1OCc1c(F)ccc(F)c1Cl [II-20, 2-Cyclopropylamino-ethanesulfonic acid {4-[5-amino-6-(2-chloro-3,6-difluoro-benzyloxy)-pyrazin-2-yl]-phenyl}-amide]	1.29 µM
